In the test the target is purified human MMP-12 enzyme (Homo sapiens, UniProt P39900). Nature of the test: MMP-12 FRET assay. It counts as biochemical. As to conditions: substrate 20 μM, room temperature. The procedure:
Compounds according to the present teachings were tested in an MMP-12 FRET assay as follows. To each well of black polystyrene 96-well plate was added assay buffer (50 mM HEPES (pH 7.4), 100 mM NaCl, 5 mM CaCl2 and 0.005% Brij-35 (Polyoxyethyleneglycol dodecyl ether, Pierce cat#20150), purified human MMP-12 enzyme, and varied concentrations of test compounds (prepared by serial dilution of a stock solution in 100% DMSO). The plates were incubated at room temperature for 30 minutes. The enzymatic reactions were initiated by addition of a substrate, MCA-Pro-Leu-Gly-Leu-Dpa(DNP)-Ala-Arg, containing a fluorescent group (7-methoxycoumarin, MCA) and a 2,4-dinitrophenyl group (DNP), to a final concentration of 20 μM. The final DMSO concentration in the assay was 10%. The reaction was monitored for 30 minutes at room temperature and the initial rate of the cleavage reaction was determined using a fluorescence plate reader (λex: 325 nm, λem: 395 nm). Plots of the inhibitor concentration vs. the initial cleavage rate were fit to the following equation: y=Vmax*(1−(x^n/(K^n+x^n))), whereby x=inhibitor concentration, y=initial rate, Vmax=initial rate in the absence of inhibitor, n=slope factor, and K=IC50 for the inhibition curve.
purified human MMP-12 enzyme, sequence (P39900 106-470): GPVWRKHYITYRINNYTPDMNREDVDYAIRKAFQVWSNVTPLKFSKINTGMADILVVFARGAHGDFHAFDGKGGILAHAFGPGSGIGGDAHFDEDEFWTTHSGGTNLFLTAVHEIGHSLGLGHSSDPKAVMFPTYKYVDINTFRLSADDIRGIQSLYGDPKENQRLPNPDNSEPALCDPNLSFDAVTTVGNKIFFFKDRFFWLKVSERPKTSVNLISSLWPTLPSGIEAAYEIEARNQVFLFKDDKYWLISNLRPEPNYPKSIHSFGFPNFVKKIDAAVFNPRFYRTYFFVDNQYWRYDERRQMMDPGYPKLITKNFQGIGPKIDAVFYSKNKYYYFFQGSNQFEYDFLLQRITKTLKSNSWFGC
In general, IC50 refers to the point on the concentration scale where inhibition reaches its midpoint. For the compound `CC(C)[C@@H](NS(=O)(=O)c1ccc2oc3cc(-c4noc(C5CCC5)n4)ccc3c2c1)C(=O)O` [Compound 148, (R)-2-(7-(5-cyclobutyl-1,2,4-oxadiazol-3-yl)dibenzo[b,d]furan-2-sulfonamido)-3-methylbutanoic acid], the IC50 was < 1.5 nM.
The value for `CC(C)[C@@H](NS(=O)(=O)c1ccc2oc3cc(-c4ccc[nH]4)ccc3c2c1)C(=O)O` [Compound 116, (R)-2-(7-(1H-pyrrol-2-yl)dibenzo[b,d]furan-2-sulfonamido)-3-methylbutanoic acid] was 3.1 nM.
To `CC(C)[C@@H](NS(=O)(=O)c1ccc2oc3cc(-c4nc5ccc(OC(F)(F)F)cc5s4)ccc3c2c1)C(=O)O` [Compound 301, (R)-3-methyl-2-(7-(6-(trifluoromethoxy)benzo[d]thiazol-2-yl)dibenzo[b,d]furan-2-sulfonamido)butanoic acid] belongs 78 nM.
For the compound `CC(C)[C@H](NS(=O)(=O)c1ccc2c(c1)oc1cc(-c3ccc(C(C)(C)C)o3)ccc12)C(=O)O` [Compound 231, (S)-2-(7-(5-tert-butylfuran-2-yl)dibenzo[b,d]furan-3-sulfonamido)-3-methylbutanoic acid], the IC50 was 3.4 nM.
Turning to `Cc1nn(C)c(C)c1-c1ccc2c(c1)oc1ccc(S(=O)(=O)N[C@@H](C(=O)O)C(C)C)cc12` [Compound 174, (R)-3-methyl-2-(7-(1,3,5-trimethyl-1H-pyrazol-4-yl)dibenzo[b,d]furan-2-sulfonamido)butanoic acid], the IC50 came to 227 nM.
To `CC(C)[C@H](NS(=O)(=O)c1ccc2c(c1)oc1cc(-c3nccs3)ccc12)C(=O)O` [Compound 137, (S)-3-methyl-2-(7-(thiazol-2-yl)dibenzo[b,d]furan-3-sulfonamido)butanoic acid] belongs 11 nM; to `CONC(=N)c1ccc2oc3cc(S(=O)(=O)N[C@H](C(=O)O)C(C)C)ccc3c2c1` [Compound 108, (S)-2-(8-(N-methoxycarbamimidoyl)dibenzo[b,d]furan-3-sulfonamido)-3-methylbutanoic acid], 2 nM.
The value for `CC(C)[C@H](NS(=O)(=O)c1ccc2c(c1)oc1ccc(-c3nnn(C)n3)cc12)C(=O)O` [Compound 132, (S)-3-methyl-2-(8-(2-methyl-2H-tetrazol-5-yl)dibenzo[b,d]furan-3-sulfonamido)butanoic acid] was 2 nM; that for `Cc1noc(C)c1-c1ccc2oc3cc(S(=O)(=O)N[C@H](C(=O)O)C(C)C)ccc3c2c1` [Compound 9, (S)-2-(8-(3,5-dimethylisoxazol-4-yl)dibenzo[b,d]furan-3-sulfonamido)-3-methylbutanoic acid] was 10.7 nM.
`COCC#Cc1ccc2c(c1)sc1cc(S(=O)(=O)N[C@@H](C(=O)O)C(C)C)ccc12` [Compound 90, (R)-2-(7-(3-methoxyprop-1-ynyl)dibenzo[b,d]thiophene-3-sulfonamido)-3-methylbutanoic acid] showed an IC50 of 15 nM.
To `CC(C)[C@H](NS(=O)(=O)c1ccc2c(c1)oc1cc(-c3nc(C(F)(F)F)c(Cl)s3)ccc12)C(=O)O` [Compound 233, (S)-2-(7-(5-chloro-4-(trifluoromethyl)thiazol-2-yl)dibenzo[b,d]furan-3-sulfonamido)-3-methylbutanoic acid] belongs < 1.5 nM; to `CCCn1cc(-c2ccc3c(c2)oc2ccc(S(=O)(=O)N[C@@H](C(=O)O)C(C)C)cc23)cn1` [Compound 171, (R)-3-methyl-2-(7-(1-propyl-1H-pyrazol-4-yl)dibenzo[b,d]furan-2-sulfonamido)butanoic acid], 3.9 nM.
As for `CC(C)[C@H](NS(=O)(=O)c1ccc2c(c1)oc1ccc(-c3cnc(Cl)s3)cc12)C(=O)O` [Compound 179, (S)-2-(8-(2-chlorothiazol-5-yl)dibenzo[b,d]furan-3-sulfonamido)-3-methylbutanoic acid], the IC50 is < 1.5 nM.
As to `CC(C)[C@H](NS(=O)(=O)c1ccc2c(c1)oc1ccc(-c3noc(-c4ccc(F)cc4)n3)cc12)C(=O)O` [Compound 272, (S)-2-(8-(5-(4-fluorophenyl)-1,2,4-oxadiazol-3-yl)dibenzo[b,d]furan-3-sulfonamido)-3-methylbutanoic acid], the IC50 was < 1.5 nM.
To “(S)-3-methyl-2-(8-(5-((methylamino)methyl)furan-2-yl)dibenzo[b,d]furan-3-sulfonamido)butanoic acid [Compound 68]” belongs 13 nM.
The value for `CC(C)Cc1ncc(-c2ccc3c(c2)oc2ccc(S(=O)(=O)N[C@@H](C(=O)O)C(C)C)cc23)s1` [Compound 244, (R)-2-(7-(2-isobutylthiazol-5-yl)dibenzo[b,d]furan-2-sulfonamido)-3-methylbutanoic acid] was 3.4 nM; that for `CC(C)[C@H](NS(=O)(=O)c1ccc2c(c1)oc1ccc(C(=O)O)cc12)C(=O)O` [Compound 273, (S)-7-(N-(1-carboxy-2-methylpropyl)sulfamoyl)dibenzo[b,d]furan-2-carboxylic acid] was 210 nM.
The value for `Cc1n[nH]c(C)c1-c1ccc2oc3cc(S(=O)(=O)N[C@H](C(=O)O)C(C)C)ccc3c2c1` [Compound 19, (S)-2-(8-(3,5-dimethyl-1H-pyrazol-4-yl)dibenzo[b,d]furan-3-sulfonamido)-3-methylbutanoic acid] was 44 nM; that for `CC(C)[C@H](NS(=O)(=O)c1ccc2c(c1)oc1ccc(-c3oc(Cl)cc3Cl)cc12)C(=O)O` [Compound 134, (S)-2-(8-(3,5-dichlorofuran-2-yl)dibenzo[b,d]furan-3-sulfonamido)-3-methylbutanoic acid] was 2.5 nM.
Compound `CC(C)[C@H](NS(=O)(=O)c1ccc2c(c1)oc1ccc(C3=NCCS3)cc12)C(=O)O` [Compound 107, (S)-2-(8-(4,5-dihydrothiazol-2-yl)dibenzo[b,d]furan-3-sulfonamido)-3-methylbutanoic acid] showed an IC50 of 21 nM.
To `CC(C)[C@H](NS(=O)(=O)c1ccc2c(c1)oc1ccc(-c3ccccc3)cc12)C(=O)O` [Compound 309, (S)-3-methyl-2-(8-phenyldibenzo[b,d]furan-3-sulfonamido)butanoic acid] belongs < 1.5 nM.
The value for `CC(C)[C@H](NS(=O)(=O)c1ccc2c(c1)oc1ccc(-c3ccsc3Cl)cc12)C(=O)O` [Compound 34, (S)-2-(8-(2-chlorothiophen-3-yl)dibenzo[b,d]furan-3-sulfonamido)-3-methylbutanoic acid] was < 1.5 nM; that for `CC(C)[C@H](NS(=O)(=O)c1ccc2c(c1)sc1ccc(-c3ccc(Cl)nc3)cc12)C(=O)O` [Compound 63, (S)-2-(8-(6-chloropyridin-3-yl)dibenzo[b,d]thiophene-3-sulfonamido)-3-methylbutanoic acid] was 33 nM.
In the case of `CC(C)[C@H](NS(=O)(=O)c1ccc2c(c1)oc1ccc(-c3ccc(C(N)=O)s3)cc12)C(=O)O` [Compound 111, (S)-2-(8-(5-carbamoylthiophen-2-yl)dibenzo[b,d]furan-3-sulfonamido)-3-methylbutanoic acid], the IC50 was < 1.5 nM.
To `CC(C)[C@H](NS(=O)(=O)c1ccc2c(c1)sc1ccc(-c3ccc(-c4ccc(-c5ccc(Cl)nc5)nc4)nc3)cc12)C(=O)O` [Compound 54, (S)-2-[8-(6″-Chloro-[2,3′;6′,3″]terpyridin-5-yl)-dibenzothiophene-3-sulfonylamino]-3-methyl-butanoic acid] belongs 483 nM.
To `CCCN(Cc1cnc(-c2ccc3oc4cc(S(=O)(=O)N[C@H](C(=O)O)C(C)C)ccc4c3c2)s1)CC1CC1` [Compound 213, (S)-2-(8-(5-(((cyclopropylmethyl)(propyl)amino)methyl)thiazol-2-yl)dibenzo[b,d]furan-3-sulfonamido)-3-methylbutanoic acid] belongs 40 nM; to `CC(C)[C@H](NS(=O)(=O)c1ccc2c(c1)oc1cc(-c3cc4ccccc4o3)ccc12)C(=O)O` [Compound 143, (S)-2-(7-(benzofuran-2-yl)dibenzo[b,d]furan-3-sulfonamido)-3-methylbutanoic acid], 1.1 nM; to `CC(C)C[C@@H](NS(=O)(=O)c1ccc2c(c1)oc1ccc(-c3noc(C(C)(C)C)n3)cc12)C(=O)O` [Compound 253, (R)-2-(8-(5-tert-butyl-1,2,4-oxadiazol-3-yl)dibenzo[b,d]furan-3-sulfonamido)-4-methylpentanoic acid], 17 nM.
The value for `CCCc1ccc(-c2ccc3oc4cc(S(=O)(=O)N[C@H](C(=O)O)C(C)C)ccc4c3c2)s1` [Compound 197, (S)-3-methyl-2-(8-(5-propylthiophen-2-yl)dibenzo[b,d]furan-3-sulfonamido)butanoic acid] was < 1.5 nM.
In the case of `CC(C)[C@H](NS(=O)(=O)c1ccc2c(c1)oc1ccc(C(=N)N(C)C(C)C)cc12)C(=O)O` [Compound 110, (S)-2-(8-(N-isopropyl-N-methylcarbamimidoyl)dibenzo[b,d]furan-3-sulfonamido)-3-methylbutanoic acid], the IC50 worked out at 425 nM.
The value for `COc1ccc(-c2ccc3sc4cc(S(=O)(=O)N[C@H](C(=O)O)C(C)C)ccc4c3c2)cn1` [Compound 55, (S)-2-(8-(6-methoxypyridin-3-yl)dibenzo[b,d]thiophene-3-sulfonamido)-3-methylbutanoic acid] was 65 nM.

The record behind these values is patent US20100227859A1, “TRICYCLIC COMPOUNDS AS MATRIX METALLOPROTEINASE INHIBITORS” (priority 2007, published 2010).
